One series deals with Her-2 in MCF-7 cells. The series is described as follows: HER2 inhibition assay (Her-2 degradation, MCF-7 cells, 24 incubation, flow cytometry). The format is cell-based. Conditions: Homo sapiens, MCF7, concentration necessary to degrade 50% of Her 2 expression. The protocol:
MCF-7 cells are seeded in 24 well plates at a density of approximately 30,000 cells/well and allowed to grow for 16 hours in DMEM supplemented with 10% FBS. Drug is then added at a concentration range of 100 uM to 0.01 uM. Cells are incubated for an additional […]. Drug treated cells and untreated control cells are trypsinized, and incubated at room temperature for 15 minutes with anti Her-2 neu Ab conjugated with phycoerythrin (Becton Dickinson, San Jose Calif.; Cat no. 340552) at a concentration of 0.25 ug/ml, or non-specific control IgG1 conjugated with phycoerythrin (Becton Dickinson, San Jose Calif.; Cat no. 340761). Samples were analyzed using a FACS Calibur flow cytometer (Becton Dickinson) equipped with Argon-ion laser that which emits 15 mW of 488 nm light for excitation of the phycoerythrin fluorochrome. 10,000 events were collected per sample. A fluorescence histogram was generated and the mean fluorescence intensity (mfi) of each sample was determined using Cellquest software. The background was defined as the mfi generated from cells incubated with control IgG, and was subtracted from each sample stained with the HER-2/neu Ab Percent degradation of Her-2 was calculated as follows: % Her-2 degradation=(mfi HER-2 sample)/(mfi HER-2 untreated cells)×100
The compounds in the table below were prepared as described above and evaluated for Her-2 degradation ability based on the above assay (example 314).
Background: Flow cytometry measures light scatter and fluorescence of single cells or particles in a stream.

In series [1] the test system is Purified native Hsp90 protein (mixture of alpha and beta) from HeLa cells. The series is described as follows: Fluorescence-based competitive binding assay for biotinylated-geldanamycin to purified Hsp90. Further details: species or system human. Conditions: HSP90 binding ability; competition with biotin-GM.
For series [2], the system named is HER-2 receptor (Hsp90 client) in MCF-7 cells. The series is described as follows: HER-2 degradation assay (MCF-7 cells, 16 h, phycoerythrin-labeled antibody and flow cytometry). The format is cell-based, human.
Series [3] deals with MCF-7 breast cancer cells. The series is described as follows: MTS cell growth inhibition assay. The format is cell-based, human. Conditions: MCF-7 cells, 5 days.
Series [4] can be described thus: Solubility in simulated gastric fluid, simulated intestinal fluid and serum. The format is physicochemical. To be noted: for Serum (PH 7.4): solubility in serum; for Gastric (PH 2.0): solubility in simulated gastric fluid; for Intestinal (PH 6.5): solubility in simulated intestinal fluid.
A short description of series [5]: Mouse pharmacokinetics after oral administration at 100 mg/kg.
The mark [6] stands for this setting: Homo sapiens, MCF7, MCF-7 cells, 16 h, average of at least three observations, read-out: HER-2 IC50.
[7] abbreviates: Homo sapiens, MCF7, read-out: HER-2.

Read-outs that look alike come from different tables or passages of the source.

Broadly, the Cmax is the maximum level reached in the sampled fluid or tissue.

Regarding `CCCCn1c(Cc2cc(OC)ccc2OC)nc2c(N)ncnc21` [Compound 1, 8-(2,5-dimethoxybenzyl)-N-9-butyladenine], the IC50 in the series with Her-2 in MCF-7 cells came out at 6 µM; in series [1], 10 µM; in series [2] (setting [6]), 12 µM.

Compound `C#CCCCn1c(Cc2cc(OC)ccc2OC)nc2c(N)nc(F)nc21` [Compound 2, 8-(2,5-dimethoxybenzyl)-N9-pentynyl-2-fluoro adenine] displayed an IC50 with Her-2 in MCF-7 cells of 0.6 µM.

Regarding `COc1ccc(OC)c(Cc2nc3c(N)nc(F)nc3n2CCC=C(C)C)c1` [Compound 3, 8-(2,5-Dimethoxy-benzyl)-2-fluoro-9-(4-methyl-pent-3-enyl)-9H-purin-6-ylamine], the figures for the IC50 (in the series with Her-2 in MCF-7 cells; in series [1]) were 0.5 µM and 1.1 µM, respectively.

In the case of `COc1ccc(OC)c(Cc2nc3c(N)nc(F)nc3n2CCCCCBr)c1` [Compound 5, 8-(2,5-Dimethoxy-benzyl)-2-fluoro-9-(5-bromo-pentyl)-9H-purin-6-ylamine], the results for the IC50 (in the series on Her-2 in MCF-7 cells; in series [1]) were 1 µM and 2 µM, respectively.

As for `C#CCCCn1c(Cc2cc(OC)ccc2OC)nc2c(N)ncnc21` [Compound 8, 8-(2,5-Dimethoxy-benzyl)-9-pent-4-ynyl-9H-purin-6-ylamine], the IC50 in the series on Her-2 in MCF-7 cells worked out at 1.5 µM; in series [1], 6 µM.

`COc1ccc(OC)c(Cc2nc3c(N)ncnc3n2CCC=C(C)C)c1` [Compound 10, 8-(2,5-Dimethoxy-benzyl)-9-(4-methyl-pent-3-enyl)-9H-purin-6-ylamine]: the IC50 in the series with Her-2 in MCF-7 cells is 1.5 µM; in series [1], 2.8 µM.

In the case of `C=CCNC1=C2C[C@@H](C)C[C@H](OC)[C@H](O)[C@@H](C)/C=C(\C)[C@H](OC(N)=O)[C@@H](OC)/C=C\C=C(/C)C(=O)NC(=CC1=O)C2=O` [Compound 17-AAG, 17-allylamino,17-desmethoxy-geldanamycin, reference compound], the IC50 is 0.032 ± 0.004 µM in series [3] and 0.0129 ± 0.0003 µM in series [2] (read-out: HER-2 IC50).

In the case of `C#CCCCn1c(Cc2cc(OC)ccc2I)nc2c(N)ncnc21` [Compound 26, 8-(2-Iodo-5-methoxy-benzyl)-9-pent-4-ynyl-9H-purin-6-ylamine], the IC50 in the series with Her-2 in MCF-7 cells was determined as 1.5 µM; in series [1] it was 1.1 µM.

In the case of `COc1ccc(I)c(Cc2nc3c(N)ncnc3n2CCC=C(C)C)c1` [Compound 27, 8-(2-Iodo-5-methoxy-benzyl)-9-(4-methyl-pent-3-enyl)-9H-purin-6-yl amine], the IC50 was determined as 0.8 µM in the series with Her-2 in MCF-7 cells and 0.9 µM in series [1].

As for `COc1ccc(I)c(Cc2nc3c(N)nc(F)nc3n2CCC=C(C)C)c1` [Compound 28, 2-Fluoro-8-(2-iodo-5-methoxy-benzyl)-9-(4-methyl-pent-3-enyl)-9H-purin-6-ylamine], the IC50 with Her-2 in MCF-7 cells turned out to be 1 µM; in series [1] it was 2.3 µM.

Regarding `C#CCCCn1c(Cc2cc(OC)ccc2I)nc2c(N)nc(F)nc21` [Compound 29, 2-Fluoro-8-(2-iodo-5-methoxy-benzyl)-9-pent-4-ynyl-9H-purin-6-ylamine], the IC50 was determined as 0.8 µM in the series on Her-2 in MCF-7 cells and 0.9 µM in series [1].

As to `CCCCn1c(Sc2cc(OC)ccc2I)nc2c(N)ncnc21` [Compound 44, 9-Butyl-8-(2-iodo-5-methoxy-phenylsulfanyl)-9H-purin-6-ylamine], the IC50 (with Her-2 in MCF-7 cells; in series [1]) was 1.5 µM in each case.

Regarding `CCCCn1c(Sc2ccc(I)c(OC)c2)nc2c(N)ncnc21` [Compound 45, 9-Butyl-8-(4-iodo-3-methoxy-phenylsulfanyl)-9H-purin-6-ylamine], the IC50 worked out at 2 µM with Her-2 in MCF-7 cells and 1.8 µM in series [1].

In the case of `COc1ccc(I)c(Sc2nc3c(N)ncnc3n2CCC=C(C)C)c1` [Compound 46, 8-(2-Iodo-5-methoxy-phenylsulfanyl)-9-(4-methyl-pent-3-enyl)-9H-purin-6-ylamine], the values for the IC50 (in the series with Her-2 in MCF-7 cells; in series [1]; in series [2] (setting [6])) were 0.3 µM, 0.9 µM and 0.37 µM, respectively.

Regarding `C#CCCCn1c(Sc2cc(OC)ccc2I)nc2c(N)ncnc21` [Compound 47, 8-(2-Iodo-5-methoxy-phenylsulfanyl)-9-pent-4-ynyl-9H-purin-6-ylamine], the IC50 in the series with Her-2 in MCF-7 cells was 0.3 µM; in series [1], 0.8 µM.

Take `C#CCCCn1c(Sc2cc(OC)ccc2OC)nc2c(N)ncnc21` [Compound 57, 8-(2,5-dimethoxy-phenylsulfanyl)-9-pent-4-ynyl-9H-purin-6-ylamine]: the IC50 stood at 1.4 µM in the series on Her-2 in MCF-7 cells and 4 µM in series [1].

For the compound `COc1ccc(OC)c(Sc2nc3c(N)ncnc3n2CCC=C(C)C)c1` [Compound 63, 8-(2,5-dimethoxy-phenylsulfanyl)-9-(4-methyl-pent-3-enyl)-9H-purin-6-ylamine], the figures for the IC50 (with Her-2 in MCF-7 cells; in series [1]) were 0.7 µM and 1.3 µM, respectively.

For the compound `CCOP(=O)(CCn1c(Sc2nc3cncc(Cl)c3s2)nc2c(N)ncnc21)OCC` [Compound 206, {2-[6-Amino-8-(7-chloro-thiazolo[4,5-c]pyridinl-2-ylsulfanyl)-purin-9-yl]-ethyl}-phosphonic acid diethyl ester], in series [4] (simulated gastric fluid, simulated intestinal fluid, serum), the “solubility compared with benzothioazol analog 204” value is “significantly more soluble in all three solutions”. For the same compound, in series [4], the “Serum (PH 7.4)” value was 14 µg/mL, the “Gastric (PH 2.0)” value is 124 µg/mL and the “Intestinal (PH 6.5)” value was 38.3 µg/mL. Also, the “plasma concentrations (in words)” value in series [5] (PO 100 mg/kg) is reported as “below the level of detection”. For the same compound, the highest concentration (Cmax) in series [5] (in vivo, po, 100 mg/kg) is less than 500 ng/mL.

For the compound `CC(C)(C)CNCCn1c(Sc2nc3cccc(Cl)c3s2)nc2c(N)ncnc21` [Compound 247, 8-(7-Chloro-benzothiazol-2-ylsulfanyl)-9-[2-(2,2-dimethyl-propylamino)-ethyl]-9H-purin-6-yl amine], in series [4], the “Serum (PH 7.4)” value is 4.9 µg/mL and the “Intestinal (PH 6.5)” value is 6 µg/mL. The IC50 in series [2] (setting [7]) was 0.035 µM.

`CC(C)(C)NCCCn1c(Sc2nc3cccc(Cl)c3s2)nc2c(N)ncnc21` [Compound 253, 9-(3-tert-Butylamino-propyl)-8-(7-chloro-benzothiazol-2-ylsulfanyl)-9H-purin-6-yl amine]: in series [4], the “Serum (PH 7.4)” value was 198.7 µg/mL and the “Intestinal (PH 6.5)” value was 137.7 µg/mL. The IC50 in series [2] (setting [7]) worked out at 0.15 µM.

Regarding `N#CCCCCn1c(Sc2nc3cccc(Cl)c3s2)nc2c(N)ncnc21` [Compound 284, 5-[6-Amino-8-(7-chloro-benzothiazol-2-ylsulfanyl)-purin-9-yl]-pentanenitrile], in series [4], the “Serum (PH 7.4)” value is 31.3 µg/mL, the “Gastric (PH 2.0)” value is 58.7 µg/mL and the “Intestinal (PH 6.5)” value was 4.4 µg/mL. The IC50 in series [2] (setting [7]) is 0.11 µM.

`C#CCCCn1c(Sc2cc(OC)ccc2I)nc2c(N)ncnc21` [Compound 309, 8-(2-iodo-5-methoxy-phenylsulfanyl)-9-pent-4-ynyl-9H-purin-6-ylamine] returned an IC50 in series [3] (Homo sapiens, MCF7, 120 h, SEM 9-21% of the mean) of 0.7 µM.

Source of the values: patent US20070129334A1, “Orally Active Purine-Based Inhibitors of Heat Shock Protein 90” (CONFORMA THERAPEUTICS CORPORATION, priority 2001, published 2007).
